From article PMC11755407, “Advancements in drug discovery: integrating CADD tools and drug repurposing for PD-1/PD-L1 axis inhibition” (RSC Advances, 2025)

Key:
[1] = target: T1, PD-L1 (Homo sapiens, UniProt Q9NZQ7); experiment: competitive ELISA of PD-1Fc binding to immobilized PD-L1
T1 construct: gene CD274; purified recombinant monomeric human PD-L1His (produced in plants); with PD-1 (PD-1Fc chimera)

[2] = target: T1, PD-L1; experiment: competitive ELISA of PD-1Fc binding to immobilized PD-L1; also partial competition with anti-PD-L1 mAb MIH1 on MDA-MB-231 cells (flow cytometry)

T1 sequence (Q9NZQ7 19-238 limits assumed): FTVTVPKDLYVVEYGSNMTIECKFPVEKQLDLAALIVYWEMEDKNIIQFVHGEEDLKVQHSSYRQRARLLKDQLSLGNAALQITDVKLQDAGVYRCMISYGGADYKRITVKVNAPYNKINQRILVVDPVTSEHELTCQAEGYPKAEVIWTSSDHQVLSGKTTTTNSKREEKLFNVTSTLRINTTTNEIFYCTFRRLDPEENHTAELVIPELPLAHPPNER
T1 sequence (Q15116 25-288 partner): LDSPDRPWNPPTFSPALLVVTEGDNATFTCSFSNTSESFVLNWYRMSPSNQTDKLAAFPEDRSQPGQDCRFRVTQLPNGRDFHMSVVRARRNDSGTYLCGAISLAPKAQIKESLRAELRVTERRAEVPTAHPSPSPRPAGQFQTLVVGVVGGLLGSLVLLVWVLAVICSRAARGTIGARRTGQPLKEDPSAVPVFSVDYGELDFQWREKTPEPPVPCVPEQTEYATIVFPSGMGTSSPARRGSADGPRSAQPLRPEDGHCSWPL

IC50 [1] | IC50 [2] | Compound
481 µM | – | Cc1c(C(=O)Nc2ccc(N3C[C@@H](C)O[C@@H](C)C3)nc2)cccc1-c1ccc(OC(F)(F)F)cc1 [compound 28, sonidegib]
– | 5.52 µM | PDI-1
